According to paper PMC10011554, “BET inhibitor trotabresib in heavily pretreated patients with solid tumors and diffuse large B-cell lymphomas” (Nature Communications, 2023):
pIC50: −log10 of the molar value. Where two headings read alike, the source gives them in different places.

Assays:
[1] = tested on: MYC expression in COH70 TNBC PDX tumor; set-up: method as in Investigator's Brochure; conditions: ref Investigator's Brochure, cited from earlier work
CYP2C19 = tested on: CYP2C19; set-up: method as in Investigator's Brochure; conditions: CYP2C19, ref Investigator's Brochure; read-out: IC50, direct inhibition; cited from earlier work
OCT2 = tested on: OCT2; set-up: method as in Investigator's Brochure; conditions: OCT2, ref Investigator's Brochure; read-out: IC50, transporter inhibition; cited from earlier work
[2] = tested on: MYC gene expression in Raji Burkitt's lymphoma cells; set-up: method as in Investigator's Brochure; conditions: ref Investigator's Brochure, read-out: mean IC50, inhibition of MYC gene expression; cited from earlier work
[3] = Biopharmaceutic and physicochemical profile
[4] = tested on: human ether-à-go-go-related gene (hERG); set-up: method as in Investigator's Brochure; conditions: ref Investigator's Brochure; cited from earlier work
[5] = tested on: BCRP, MRP2, OAT1, OAT3, OATP1B1, OATP1B3 and OCT2; set-up: method as in Investigator's Brochure; conditions: MRP2, OAT1, OAT3, OATP1B1, OATP1B3 and OCT2, ref Investigator's Brochure; cited from earlier work
OATP1B1 = tested on: OATP1B1; set-up: method as in Investigator's Brochure; conditions: OATP1B1, ref Investigator's Brochure; read-out: IC50, transporter inhibition; cited from earlier work
[6] = Clinical plasma and CSF pharmacokinetics, part A; format: in vivo; conditions: human
Method: Protocol CC-90010-ST-001 Celgene Corporation
Following oral administration of CC-90010, geometric mean peak exposure to CC-90010, based on Cmax, increased with dose on Day 1 (single dose) and after last dose (repeated dosing), in a manner approximately proportional with dose. Across all dose levels and both sampling occasions, Cmax was observed a few hours after dosing, with median tmax ranging from 1 to 2 hours postdose. The terminal elimination half-life, where estimated, was generally similar across the dose schedules, ranging from approximately 40 to 70 hours, after repeated dosing of […]
across the dose levels, after repeated dosing of CC-90010. There was evidence of accumulation after repeated dosing of CC-90010 for all dose schedules and dose levels, with accumulation […]
Between-subject variability across the dose levels ranged from 22.0% to 91.7% on Day 1 based […]
Cerebrospinal fluid samples were collected for one subject, who had quantifiable cerebrospinal fluid concentrations of CC-90010, with an average time matched CSF/plasma ratio of 6.6%.
1.4. Safety Monitoring Plan […]
(1 picture or pasted object on this page, not shown here)
The provisional CC-90010 dose levels (total doses within on cycle) are: 180 mg in Schedule 1, […]
220 mg in Schedule 4. It is however possible for some doses to be skipped or additional dose levels to be added during the course of the study, based on the emerging safety information.
After each cohort the posterior distributions for the probabilities of a DLT rates at different dose levels are obtained. The results of this analysis are summarized in terms of the estimated probabilities that the true rate of DLT at each dose-level will have of lying in each of the […]
• [0.16, 0.33) targeted toxicity
• [0.33, 1.00] excessive toxicity.
Following the principle of escalation with EWOC, after each cohort of subjects the recommended dose is the one with the highest posterior probability of the DLT rate falling in the target interval [16%, 33%) among the doses fulfilling EWOC, ie, it is unlikely (<25% posterior probability) that the DLT rate at the dose falls in the excessive toxicity interval.
Note that the dose that maximizes the posterior probability of targeted toxicity is the best estimate of the MTD, but it may not be an admissible dose according to the overdose criterion if the amount of data is insufficient. […]
Plasma PK parameters such as AUC0-24, C max, Tmax, t1/2, CL/F, and Vz/F of CC-90010 will be calculated by the noncompartmental analysis method from the plasma concentration-time profiles of CC-90010. Additional PK parameters including CSF to plasma concentration ratio of CC-90010, may be calculated, if data permits. […]

Structure (SMILES): Cn1cc(-c2cc(S(C)(=O)=O)ccc2OCC2CC2)c2ccccc2c1=O [trotabresib]
- maximal suppression of MYC expression ([1]; COH70, 2 mg/kg, at 2 hours): 51.3%
- maximal suppression of MYC expression ([1]; COH70, 10 mg/kg, at 4 hours): 63.4%
- pIC50 (CYP2C19): ≤ 4.86
- pIC50 (OCT2): 5.08
- pIC50 [2]: 7.22
- ionization [3]: non-ionizable
- Biopharmaceutics Classification System (BCS) behavior ([3]; data on file): Category II like
- pIC50 [4]: 4.61
- transporter substrate status [5]: not a substrate
- pIC50 (OATP1B1): 5.31
- Kp ([6]; CSF, oral, one subject, read-out: average time matched CSF/plasma ratio): 0.066
- Tmax ([6]; in vivo, part A, across all dose levels, Day 1 and last dose, read-out: median tmax): 1 to 2 h
- Vd/F ([6]; in vivo, part A, across dose levels, after repeated dosing, read-out: Vss/F): 134 to 553 L
- half-life ([6]; in vivo, part A, across dose schedules, after repeated dosing, read-out: terminal elimination half-life): 40 to 70 h
